Measurements published in US12605397B2, “Deoxy-cytidine or uridine derivatives for use in cancer therapies” (HEMISPHERIAN AS, priority 2019, dated 2026).

Key:
A549 cells = assay: Survival assay (MTT), A549; assay type: cell-based, human; conditions: Homo sapiens
Procedure: (§1) Cells were passed between 70 and 90% confluence.
(§2) Cells were incubated with the drugs for 72 hours.

NCI-N87 cells = assay: Survival assay (MTT), NCI-N87; assay type: cell-based, human; conditions: Homo sapiens
Procedure: as §1, §2

A-498 cells = assay: Survival assay (MTT), A-498; assay type: cell-based, human; conditions: Homo sapiens
Procedure: as §1, §2

A375 cells = assay: Survival assay (MTT), A375; assay type: cell-based, human; conditions: Homo sapiens, A-375
Procedure: as §1, §2

HL-60 cells = assay: Survival assay (MTT), HL-60; assay type: cell-based, human; conditions: Homo sapiens
Procedure: as §1, §2

SK-OV-3 cells = assay: Survival assay (MTT), SK-OV-3; assay type: cell-based, human; conditions: Homo sapiens
Procedure: as §1, §2

MCF-7 cells = assay: Survival assay (MTT), MCF-7; assay type: cell-based, human; conditions: Homo sapiens, MCF7
Procedure: as §1, §2

U2OS cells = assay: Survival assay (MTT), U2OS; assay type: cell-based, human; conditions: Homo sapiens
Procedure: as §1, §2

G7 cells = assay: Survival assay (MTT), G7; assay type: cell-based, human; conditions: Homo sapiens, G7, Glioma, Grade IV, 72 hours
Procedure: (§3) Primary glioma neural stem (GNS) cells (G7, G14, G144, G166) were cultured on poly-D-lysine (Merck Millipore, Cat. Nr. A-003-E) and laminin (R&D Systems, Cat.Nr. 3446-005-01) coated plates in neural stem cell medium (50% DMEM-F12 (Thermofisher, Cat. Nr. 21041025), 50% neurobasal medium (Thermofisher, Cat. Nr. 10888-022), N2 (Life Technologies, Cat. Nr. A-003-E) and B27 supplements (Life Technologies, Cat.Nr. 12587010), 1 mM sodium pyruvate (Life Technologies, Cat.Nr. 11360-039), 2 mM glutamax (Life Technologies, Cat. Nr. 35050038), 1 mM HEPES (Fisher Scientific, Cat. Nr. BP299-1), 0.1 mM β-mercaptoethanol (Life Technologies, Cat. Nr. 31350010), 1× nonessential amino acids (Life Technologies, Cat. Nr. 11140-035), 0.006% bovine serum albumin (Sigma, Cat. Nr. A8577-10ML), 4 μg/ml heparin (Sigma, Cat. Nr. H3149-25KU), 100 U/ml penicillin, 100 μg/ml streptomycin, 20 ng/ml hEGF (R&D Systems, Cat. Nr. 236-EG-200), 10 ng/ml bFGF (Peprotech, Cat. Nr. 100-18B).
as §2

G26 cells = assay: Survival assay (MTT), G26; assay type: cell-based, human; conditions: Homo sapiens, G26, Glioma, Grade IV, 72 hours
Procedure: as §1, §2

G144 cells = assay: Survival assay (MTT), G144; assay type: cell-based, human; conditions: Homo sapiens, G144, Glioma, Grade IV, 72 hours
Procedure: as §3, §2

G166 cells = assay: Survival assay (MTT), G166; assay type: cell-based, human; conditions: Homo sapiens, G166, Glioma, Grade IV, 72 hours
Procedure: as §3, §2

SF188 cells = assay: Survival assay (MTT), SF188; assay type: cell-based, human; conditions: Homo sapiens, SF-188, SF188, Glioma, Grade IV, 72 hours
Procedure: as §1, §2

U3017 cells = assay: Survival assay (MTT), U3017; assay type: cell-based, human; conditions: Homo sapiens, U3017, Glioma, Grade IV, 72 hours
Procedure: as §1, §2

DIPG007 cells = assay: Survival assay (MTT), DIPG007; assay type: cell-based, human; conditions: Homo sapiens, DIPG007, Glioma, Grade IV, 72 hours
Procedure: as §1, §2

U3013 cells = assay: Survival assay (MTT), U3013; assay type: cell-based, human; conditions: Homo sapiens, U3013, Glioma, Grade IV, 72 hours
Procedure: as §1, §2

HaCat cells = assay: Survival assay (MTT), HaCat; assay type: cell-based, human; conditions: Homo sapiens, Normal, Keratinocytes, 72 hours
Procedure: as §1, §2
(§4) The present inventors further investigated the extent to which these compounds kill normal human cells; low cytotoxicity against normal human cells is advantageous property for anti-cancer agents. The cytotoxicity of these compounds in various normal human cell lines was therefore investigated (Table 3). Cells were grown and the survival assay was performed as described above (Materials and Methods).

MRC5 cells = assay: Survival assay (MTT), MRC5; assay type: cell-based, human; conditions: Homo sapiens
Procedure: as §1, §2, §4

[1] = system: Glioma, Grade IV cell lines; assay: Survival assay, panel of 12 patient derived Glioma, Grade IV cell lines; assay type: cell-based, human; conditions: of 12 cell lines of Table 2
Procedure: as §3, §1, §2
Due to lack of activity in previous assays, 5-carboxyl-2′-deoxycytidine was not included in this more rigorous analysis.

[2] = system: SF-188 grade IV glioma cells; assay: Apoptosis flow cytometry (Annexin V / 7AAD); assay type: cell-based, human; conditions: SF-188 cells, 100 μM, 72 hours
Procedure: 100,000 cells were seeded in a 6-well plate and incubated with 100 μM of Temozolomide, 2′-Deoxy-5-hydroxymethylcytidine, 5-Formyl-2′-deoxycytidine or DMSO for 72 hours. Detection of apoptotic cells was assessed using Annexin V-7-amino-actinomycin D (7-AAD) Apoptotic Detection Kit (Nordic Biosite AS, Cat. Nr. 640922) according to manufacturer's protocol.
Fluorescence-activated cell sorting analysis was performed on LSR Fortessa (BD Biosciences) and data were analyzed on FlowJo software. All experiments were performed in triplicates.
It was therefore evaluated whether 5-formyl-2′deoxycytidine and 5-hydroxymethyl-2′-deoxycytidine were killing sensitive cells or causing them to be delayed in the cell cycle. SF-188 grade IV glioma cells were treated either with DMSO, temozolomide, 5-formyl-2′-deoxycytidine, or 5-hydroxymethyl-2′-deoxycytidine at the indicated concentration. […] A majority of SF-188 cells treated with 5-formyl-2′-deoxycytidine or 5-hydroxymethyl-2′-deoxycytidine were dead according to the flow cytometry profile (FIG. 2A).

HeLa cells = assay: Survival assay (MTT), HeLa; conditions: for IC50: Homo sapiens, HeLa; for cytotoxicity to HeLa cells (cell survival): three days of treatment, MTT, up to 100 μM
Procedure: Cell lines not mentioned above were grown in DMEM (Sigma, Cat.Nr. D6429) supplemented with 10% Fetal Bovine Serum and 100 U/ml penicillin 100 U/ml streptomycin. All cells were maintained in a 5% CO2, humidified, water-jacketed incubator at 37° C. Cells were passed between 70 and 90% confluence.
In a 96-well plate, 4000 cells in 100 μl of corresponding medium were seeded. The following day, drugs, diluted in DMSO, were added in 8 concentrations in triplicate. Drugs were added as a 4-fold dilution series starting from 100 μM. Cells were incubated with the drugs for 72 hours. Cell proliferation was assessed by MTT assay according to the manufacturer's protocol (ATCC, Cat. Nr. 30-1010K). Cell survival was normalized to the survival of cells treated with DMSO only. Experiment was performed three times, data represent mean of nine wells±SEM.
HeLa cells, grown as described above (Materials and Methods), were treated with 5-hydroxymethyl-2′-deoxycytidine and 5-formyl-2′-deoxycytidine. After three days of treatment with these compounds, cell survival was assessed as described above (Materials and Methods).
After three days of treatment with these compounds at a concentration of 100, 25, 6.25, 1.56, 0.39, 0.1, 0.02, or 0.006 μM, cell survival was assessed by MTT assay as described above (Materials and Methods).

[3] = A549, 72 h, A549, Lung Carcinoma, 72 hours, MTT
[4] = A549, A549, Tables 6 and 7, unit inferred
[5] = NCI-N87, Gastric Carcinoma, 72 hours, MTT
[6] = NCI-N87, Tables 6 and 7, unit inferred
[7] = A498, 72 h, A-498, Kidney Carcinoma, 72 hours, MTT
[8] = A498, A-498, Tables 6 and 7, unit inferred
[9] = A375, Malignant Melanoma, 72 hours, MTT
[10] = A375, Tables 6 and 7, unit inferred
[11] = HL-60, Acute Promyelocytic Leukemia, 72 hours, MTT
[12] = HL-60, Tables 6 and 7, unit inferred
[13] = SK-OV-3, Ovarian Adenocarcinoma, 72 hours, MTT
[14] = SK-OV-3, Tables 6 and 7, unit inferred
[15] = MCF-7, Epithelial Adenocarcinoma (Breast), 72 hours, MTT
[16] = MCF-7, Tables 6 and 7, unit inferred
[17] = Bone Osteoscarcoma, 72 hours, MTT
[18] = MRC5, 72 h, MRC5, Normal, Lung, 72 hours, MTT
[19] = MRC5, MRC5, Tables 6 and 7, unit inferred

Row | SMILES | IC50 (A549 cells; [3]) [µM] | IC50 (NCI-N87 cells; [5]) [µM] | IC50 (A-498 cells; [7]) [µM] | IC50 (A375 cells; [9]) [µM] | IC50 (HL-60 cells; [11]) [µM] | IC50 (SK-OV-3 cells; [13]) [µM] | IC50 (MCF-7 cells; [15]) [µM] | IC50 (U2OS cells; [17]) [µM] | IC50 (G7 cells) [µM] | IC50 (G26 cells) [µM] | IC50 (G144 cells) [µM] | IC50 (G166 cells) [µM] | IC50 (SF188 cells) [µM] | IC50 (U3017 cells) [µM] | IC50 (DIPG007 cells) [µM] | IC50 (U3013 cells) [µM] | IC50 (HaCat cells) [µM] | IC50 (MRC5 cells; [18]) [µM] | number of Glioma, Grade IV cell lines killed [1] | dead cells by flow cytometry (Annexin V, 7AAD) [2] | further results
1 | Nc1nc(=O)n([C@H]2C[C@H](O)[C@@H](CO)O2)cc1C=O [2d5fC, 5-formyl-2′-deoxycytidine] | > 25 | 0.806 | > 25 | 3.19 | 6.26 | 9.69 | 0.866 | 8.69 | 19.2 | 28.1 | > 100 | > 100 | 28.2 | > 100 | > 100 | > 100 | 0.102 | > 25 | 5 of 12 | dead and not arrested at a cell cycle checkpoint | IC50 (A549 cells; [4]): ≥ 25 µM; IC50 (NCI-N87 cells; [6]): 0.806 µM; IC50 (A-498 cells; [8]): ≥ 25 µM; IC50 (A375 cells; [10]): 3.19 µM; IC50 (HL-60 cells; [12]): 6.26 µM; IC50 (SK-OV-3 cells; [14]): 9.69 µM; IC50 (MCF-7 cells; [16]): 0.866 µM; IC50 (U2OS cells; Tables 6 and 7, unit inferred): 8.69 µM; IC50 (MRC5 cells; [19]): ≥ 25 µM; IC50 (HeLa cells): 0.76 µM; IC50 (HeLa cells; 72 h): 0.76 µM; cytotoxicity to HeLa cells (cell survival) (HeLa cells): markedly greater cytotoxic effect
2 | Nc1nc(=O)n([C@H]2C[C@H](O)[C@@H](CO)O2)cc1CO [2d5hmC, 5-hydroxymethyl-2′-deoxycytidine] | > 25 | > 25 | > 25 | > 25 | > 25 | > 25 | > 25 | > 25 | 11.9 | > 100 | > 100 | > 100 | 8.97 | 14.1 | > 100 | > 100 | > 25 | > 25 | 6 of 12 | dead and not arrested at a cell cycle checkpoint | IC50 (A549 cells; [4]): ≥ 25 µM; IC50 (NCI-N87 cells; [6]): ≥ 25 µM; IC50 (A-498 cells; [8]): ≥ 25 µM; IC50 (A375 cells; [10]): ≥ 25 µM; IC50 (HL-60 cells; [12]): ≥ 25 µM; IC50 (SK-OV-3 cells; [14]): ≥ 25 µM; IC50 (MCF-7 cells; [16]): ≥ 25 µM; IC50 (U2OS cells; Tables 6 and 7, unit inferred): ≥ 25 µM; IC50 (MRC5 cells; [19]): ≥ 25 µM; IC50 (HeLa cells): ≥ 25 µM; IC50 (HeLa cells; 72 h): > 25 µM; cytotoxicity to HeLa cells (cell survival) (HeLa cells): did not differ from DMSO treated cells
3 | Cn1nnc2c(C(N)=O)ncn2c1=O [Temozolomide, 4-methyl-5-oxo-2,3,4,6,8-pentazabicyclo[4.3.0]nona-2,7,9-triene-9-carboxamide, reference compound] | 1.02 | > 25 | > 25 | > 25 | > 25 | > 25 | > 25 | > 25 | 6.18 | 7.34 | 14.7 | > 100 | > 100 | > 100 | > 100 | > 100 | > 25 | > 25 | 5 of 12 | slight increase in the amount of dead cells | IC50 (HeLa cells; 72 h): > 25 µM
